These results are taken from paper PMC7170889, “Synthesis and evaluation of designed PKC modulators for enhanced cancer immunotherapy” (Nature Communications, 2020).

Assay [1] addresses T1, PKCα (Homo sapiens, UniProt P17252).
T1 construct: purchased Invitrogen
In words: PKC competitive binding assay with [3H]-phorbol dibutyrate (PKCα). Particulars: cell-free, competition with [3H]-PDBu, PS vesicles; read-out: Ki PKCα. Here is the method: (§1) With a panel of compounds bearing diverse functionality at C13, we began to explore how these modifications affect PKC binding and biological function. Because an obvious prerequisite for PKC pathway involvement is binding to PKC, compounds were initially evaluated for PKC affinity in a cell-free competitive binding assay with tritiated phorbol dibutyrate ([^3H]-PDBu). Assays were performed with representative members of both the conventional (PKCα) and novel (PKCδ) PKC families. Subsequently, compounds were assayed for PKC isoform translocation in real time in living cells using an optical assay. Translocation to the plasma membrane is the hallmark of PKC activation[18],[57],[60] and therefore monitoring the subcellular localization of a PKCδ-GFP fusion protein via confocal microscopy offers a convenient method for determining whether a compound enters a cell and engages its PKC isoform target. Finally and of clinical significance, we also determined the effect of compounds on CD22 surface expression in vitro in NALM6 cells, an ALL cell line previously studied in connection with CD22-targeted CAR T cell therapy, and two additional lymphoma cell lines[11],[31],[65].
(§2) PKC Binding Assay Protocol […]
(§3) competition with 3H-phorbol-12,13-dibutyrate (3H-PDBu) as described below. This procedure entails a glass-fiber filtration method to determine bound radioligand.
(§4) Preparation of PKC binding assay buffer
(§5) To a 50 mL polypropylene tube was added Tris-HCl (pH 7.4, 1 M, 1 mL), KCl (1 M, 2 mL), CaCl2 (0.1 M, 30 μL), and bovine serum albumin (BSA, 40 mg, Sigma-Aldrich). This mixture was diluted to 20 mL with deionized H2O and mixed gently. The buffer was stored on ice until use. The final […]
(§6) Supplementary Table1. PKC binding assay buffer composition.
(§7) Preparation of phosphatidylserine (PS) vesicles
(§8) For every two assays, 3.5 mg phosphatidylserine (Avanti Polar Lipids, porcine, 25 mg/mL CHCl3 solution) was concentrated by removing chloroform under a stream of nitrogen followed by reduced pressure. The solid PS was suspended as vesicles in freshly prepared PKC binding assay buffer (3.5 mL) by sonicating six times for 30 sec, with a 30 sec rest between sonications (Branson Sonifier 250, power = 2, 50% duty cycle). The resulting milky cloudy mixture (1 mg/mL) was stored […]
(§9) Preparation of PKC isoform solution
Assay PKC was prepared by dissolving a 4 μg aliquot of the indicated recombinant human PKC isoform (Invitrogen) into 11.6 mL of PKC binding assay buffer (this amount is sufficient for two assays). The diluted PKC was stored on ice for immediate use.
Preparation of 3H-PDBu solution
3H-PDBu (American Radiolabeled Chemicals, Inc.; 1 mCi/mL acetone solution; specific activity: […]) was diluted 10-fold with DMSO. The resulting 500 nM stock solution was further diluted with DMSO to 30 nM.
(§10) Preparation of analog compound dilutions
(§11) Compound dilutions were prepared by serially diluting from a chosen "high" concentration by factors of 3 or 4. For each analog compound, seven concentrations were used to define the […]
(§12) To a polypropylene tube was added 3.3 mL of 1 mg/mL PS vesicles solution, 11 mL of PKC isoform solution, and 1.1 mL of 30 nM 3H-PDBu solution were added. The resulting solution was vortexed to mix and stored on ice.
(§13) PKC binding assay protocol
(§14) - Glass-fiber filters (Whatman GF/B) were prepared by soaking them in a solution of aqueous polyethyleneimine (10% by vol, 18 mL) in deionized water (600 mL) for ≥1h.
(§15) - 500 mL "rinsing buffer" of 20 mM Tris, pH 7.4 was cooled on ice for the duration of the incubation period and for the remainder of the assay.
Triplicate data points were obtained for each analog concentration. For each data point, 280 μL of "Master Mix" Solution and 20 μL of analog compound at a specified concentration were added to a polypropylene tube. Non-specific 3H-PDBu binding was assessed in triplicate by substitution

Assay [2] deals with T2, PKCδ (Homo sapiens, UniProt Q05655).
T2 construct: purchased Invitrogen
In words: PKC competitive binding assay with [3H]-phorbol dibutyrate (PKCδ). The settings on record: cell-free, competition with [3H]-PDBu, PS vesicles. Here is the method:
as §1, §2, §3, §4, §5, §6, §7, §8, §9
Assay PKC was prepared by dissolving a 4 μg aliquot of the indicated recombinant human PKC isoform (Invitrogen) into 11.6 mL of PKC binding assay buffer (this amount is sufficient for two assays). The diluted PKC was stored on ice for immediate use. […]
μCi/mmol) was diluted 10-fold with DMSO. The resulting 500 nM stock solution was further diluted with DMSO to 30 nM.
as §10, §11, §12, §13, §14, §15
Triplicate data points were obtained for each analog concentration. For each data point, 280 μL of "Master Mix" Solution and 20 μL of analog compound at a specified concentration were added to a polypropylene tube. Non-specific 3H-PDBu binding was assessed in triplicate by substitution […]
μM). Maximal 3H-PDBu binding was assessed in triplicate by substitution of the analog compound with 20 μL DMSO. The solutions were vortexed to mix, incubated at 37 °C for 10 min, and […]

Assay [3] has as its system CD22 surface expression in NALM6 cells. Nature of the assay: CD22 surface expression in NALM6 cells (flow cytometry). It is filed as cell-based, human. Particulars: NALM6 cells at 1 nM relative to DMSO control, 24 h incubation, washout, 24 h sub-culture, n = 3; for fold induction at 0.001 µM: Homo sapiens, NALM-6, 24 h, read-out: Fold increase CD22 expression. Here is the method: CD22 Surface Expression Protocol – NALM6 Cells […]
unless otherwise noted below) at 37 ° C in an incubator (5% CO2). Cell cultures were maintained […]
Cell suspension from a confluent T75 flask (Fisher) was transferred to a 15 mL falcon tube and centrifuged at 1100 rpm for 7 minutes. The supernatant was aspirated, and the cell pellet was […]
Cells were counted using a Countess II Automated Cell
199 µL of this stock was added to 24 wells (enough for triplicate measurements for 8 different experimental conditions) in a 96-well plate. Dosing was […]
each experiment. 1 µL of DMSO or the appropriate stock solution of compound in DMSO was added to each well. Cells were incubated for 24 hours, at which point the cell suspensions were transferred to 1.5 mL Eppendorf tubes and diluted with 1.0 mL of PBS (Hyclone, without Ca2+ or Mg2+). Samples were centrifuged at 2000 rpm for 5 min at RT. The supernatant was aspirated, […]
Cells were sub-cultured between 2 […]
surface expression was assayed by flow cytometry.
Cells from one well were counted using a Countess II Automated Cell Counter (Fisher). ~200,000 – 300,000 cells from each well were added to 1.5 mL Eppendorf tubes containing PBS (final volume ~1.2 mL). The cell suspensions were centrifuged at 1500 rpm for 7 minutes at 4 °C. The supernatant was aspirated, and the cell pellet was resuspended in 99 µL of pre-chilled FACS […]
buffer (0.5% w/v BSA in PBS). […]
minutes. Samples were then diluted with an additional 1.0 mL of FACS buffer and centrifuged at 1500 rpm for 7 minutes at 4 °C. The supernatant was aspirated, the cell pellets were resuspended in 200 µL FACS buffer, and the resulting suspensions were transferred to FACS tubes (Fisher, […]
Cells were stained with DAPI and CD22 surface expression was analyzed using the FACScan Analyzer at the Stanford Shared FACS Facility. Data analysis was performed using FlowJo and Microsoft Excel.
On the technique in general: A flow cytometer gives signals particle by particle.

pKi: −log10 of the molar value.

T2 sequence (Q05655 whole entry): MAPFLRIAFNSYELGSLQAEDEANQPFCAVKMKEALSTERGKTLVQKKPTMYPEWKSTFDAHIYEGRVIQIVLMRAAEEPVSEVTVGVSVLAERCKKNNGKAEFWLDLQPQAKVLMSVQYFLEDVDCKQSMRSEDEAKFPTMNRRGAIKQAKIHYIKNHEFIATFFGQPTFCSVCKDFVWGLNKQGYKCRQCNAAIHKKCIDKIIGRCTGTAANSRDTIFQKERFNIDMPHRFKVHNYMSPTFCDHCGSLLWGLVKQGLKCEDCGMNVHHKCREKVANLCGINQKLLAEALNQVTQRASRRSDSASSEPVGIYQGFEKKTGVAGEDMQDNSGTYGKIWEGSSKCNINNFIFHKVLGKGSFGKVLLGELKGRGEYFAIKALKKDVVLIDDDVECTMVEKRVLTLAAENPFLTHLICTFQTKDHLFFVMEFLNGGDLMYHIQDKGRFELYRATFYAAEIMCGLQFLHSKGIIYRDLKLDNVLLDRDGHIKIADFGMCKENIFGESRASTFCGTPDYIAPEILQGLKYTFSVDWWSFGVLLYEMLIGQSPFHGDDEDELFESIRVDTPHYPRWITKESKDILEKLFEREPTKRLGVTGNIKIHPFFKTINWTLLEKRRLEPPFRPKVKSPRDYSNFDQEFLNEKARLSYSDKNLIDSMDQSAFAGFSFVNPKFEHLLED

As usually defined, the pKi is the negative decadic logarithm of the Ki, by convention in mol/L. With `CCCC=CC=CC(=O)OC1C(=CC(=O)OC)CC2CC(C(C)O)OC(=O)CC(O)CC3CC(OC(C)=O)C(C)(C)C(O)(CC4CC(OC(=O)Nc5ccccc5)CC(C=CC(C)(C)C1(O)O2)O4)O3` (stereo not drawn) [SUW208], the negative logarithm of the Ki (pKi) in assay [1] is 9.00; in assay [2], 8.33. The fold induction at 0.001 µM in assay [3] turned out to be 1.68.
`CCC/C=C/C=C/C(=O)O[C@H]1/C(=C/C(=O)OC)C[C@H]2C[C@H]([C@@H](C)O)OC(=O)C[C@H](O)C[C@@H]3C[C@H](OC(C)=O)C(C)(C)[C@](O)(C[C@@H]4C[C@@H](OC(C)=O)C[C@H](/C=C/C(C)(C)[C@]1(O)O2)O4)O3` [SUW207]: the values for the pKi in assay [1] and in assay [2] were 8.70 and 8.27, respectively. Further, the “Fold increase CD22 expression” value in assay [3] turned out to be 1.33 fold.
For `CCCC=CC=CC(=O)OC1C(=CC(=O)OC)CC2CC(C(C)O)OC(=O)CC(O)CC3CC(OC(C)=O)C(C)(C)C(O)(CC4CC(OC(=O)CC56CC7CC(CC(C7)C5)C6)CC(C=CC(C)(C)C1(O)O2)O4)O3` (stereo not drawn) [SUW209], the pKi in assay [1] was 8.80; in assay [2], 8.46. For the same molecule, the fold induction at 0.001 µM in assay [3] was 1.45.
For `CCCCCC#CC(=O)O[C@H]1/C(=C/C(=O)OC)C[C@H]2C[C@H]([C@@H](C)O)OC(=O)C[C@H](O)C[C@@H]3C[C@H](OC(C)=O)C(C)(C)[C@](O)(C[C@@H]4C[C@H](O)C[C@H](/C=C/C(C)(C)[C@]1(O)O2)O4)O3` [SUW204], the pKi in assay [1] was 8.85; in assay [2] it was 8.43. For the same molecule, the fold induction at 0.001 µM in assay [3] is 0.98.
As to `CCCC=CC=CC(=O)OC1C(=CC(=O)OC)CC2CC(C(C)O)OC(=O)CC(O)CC3CC(OC(C)=O)C(C)(C)C(O)(CC4CC(=CC(=O)OCC)CC(C=CC(C)(C)C1(O)O2)O4)O3` (stereo not drawn) [SUW218], the results for the pKi in assay [1] and in assay [2] were 8.15 and 8.18, respectively. In addition, the “Fold increase CD22 expression” value in assay [3] was 1.92 fold.
Consider `CCCC=CC=CC(=O)OC1C(=CC(=O)OC)CC2CC(C(C)O)OC(=O)CC(O)CC3CC(OC(C)=O)C(C)(C)C(O)(CC4CC(=CC(=O)OCC)CC(C=CC(C)(C)C1(O)O2)O4)O3` (stereo not drawn) [SUW217], for which the pKi in assay [1] is 8.04; in assay [2], 8.03. In assay [3], the fold induction at 0.001 µM turned out to be 1.97.
For `CCCC=CC=CC(=O)OC1C(=CC(=O)OC)CC2CC(C(C)O)OC(=O)CC(O)CC3CC(OC(C)=O)C(C)(C)C(O)(CC4CC(OC(=O)CCc5c[nH]c6ccccc56)CC(C=CC(C)(C)C1(O)O2)O4)O3` (stereo not drawn) [SUW210], the pKi in assay [1] was 8.25; in assay [2], 8.14. Further, the fold induction at 0.001 µM in assay [3] is 1.49.
